EC50 data for 19 compounds are collected here from patent US12643879B2, “Functionalized heterocyclic compounds as modulators of stimulator of interferon genes (STING)” (RYVU THERAPEUTICS S.A., priority 2019, dated 2026).

Assay [1] has as its system interferon regulatory factor (IRF) pathway in THP-1 dual cells. Description: THP-1 Dual reporter assay, IRF pathway (luciferase). The assay is classed as cell-based. The conditions noted are these: Homo sapiens, THP1-Dual, read-out: THP1 Dual EC50 (μM) IRF. In outline:
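Luminescence (IRF arm, luciferase under ISG54 minimal promoter with five ISREs) and absorbance at 630 or 655 nm (NF-κB arm, SEAP under IFN-β minimal promoter with NF-κB elements) were measured in supernatants of THP-1 dual cells stimulated 18 h with compound.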
For orientation: In a reporter assay the amount or activity of a reporter protein is the signal.

The test system of assay [2] is NF-κB pathway in THP-1 dual cells. Description: THP-1 Dual reporter assay, NF-κB pathway (SEAP). The settings on record: Homo sapiens, THP1-Dual, read-out: THP1 Dual EC50 (μM) NFkB. It counts as cell-based. In outline:
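Dual-reporter THP-1 cells treated 18 h with STING agonist; secreted luciferase (IRF) and SEAP (NF-κB) quantified from medium by luminescence and colorimetric absorbance, respectively.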

Setting [3] is: 18 h stimulation, absorbance at 630 or 655 nm.

SMILES strings stand for the structures. Structures can show the parent of a compound that is named as a salt. Where two headings read alike, the source gives them in different places.

Turning to `Cc1ccc(N2CCC[C@H](N(Cc3ccnc(C)c3)Cc3cn(C4CC4)c4cc(N5CCC6C(CCN6C(=O)OCc6ccc(NC(=O)[C@H](CCCNC(N)=O)NC(=O)[C@@H](NC(=O)CCOCCOCCOCCN=[N+]=[N-])C(C)C)cc6)C5)c(F)cc4c3=O)C2)cn1` (stereo partly drawn) [Example 68A, {4-[(2S)-2-[(2S)-2-(3-{2-[2-(2-azidoethoxy)ethoxy]ethoxy}propanamido)-3-methyl-butanamido]-5-(carbamoylamino)pentanamido]phenyl}methyl 5-[1-cyclopropyl-6-fluoro-3-({[(3S)-1-(6-methylpyridin-3-yl)piperidin-3-yl][(2-methylpyridin-4-yl)methyl]amino}methyl)-4-oxo-1,4-dihydroquinolin-7-yl]-octahydro-1H-pyrrolo[3,2-c]pyridine-1-carboxylate], the concentration for a half-maximal effect (EC50) (usually the concentration giving half of the maximal effect) in assay [1] (18 h stimulation, luminescence) is 1 to 10 µM; in assay [2] (setting [3]), above 10 µM.
On the same counts, the results for `Cc1cc(CN(Cc2cn(C(C)C)c3cc(N4CC[C@@H](O)C4)ccc3c2=O)[C@H]2CCCN(c3cn[nH]c3)C2)ccn1` [Example 69, 7-[(3R)-3-hydroxypyrrolidin-1-yl]-3-({[(2-methylpyridin-4-yl)methyl][(3S)-1-(1H-pyrazol-4-yl)piperidin-3-yl]amino}methyl)-1-(propan-2-yl)-1,4-dihydroquinolin-4-one] are 1 to 10 µM and 1 to 10 µM.
Taken in the same sequence, the figures for `Cc1ccc(N2CCC[C@H](N(Cc3ccnc(C)c3)Cc3cn(C4CC4)c4cc(N5CCN(CCO)CC5)c(F)cc4c3=O)C2)cn1` [Example 70, 1-cyclopropyl-6-fluoro-7-[4-(2-hydroxyethyl)piperazin-1-yl]-3-({[(3S)-1-(6-methylpyridin-3-yl)piperidin-3-yl][(2-methylpyridin-4-yl)methyl]amino}methyl)-1,4-dihydroquinolin-4-one] were below 1 µM and below 1 µM.
Taken in the same sequence, the figures for `Cc1ccc(N2CCC[C@H](N(Cc3ccnc(C)c3)Cc3cn(C4CC4)c4cc(N5CCOC(CO)C5)c(F)cc4c3=O)C2)cn1` (stereo partly drawn) [Example 71, 1-cyclopropyl-6-fluoro-7-[2-(hydroxymethyl)morpholin-4-yl]-3-({[(3S)-1-(6-methylpyridin-3-yl)piperidin-3-yl][(2-methylpyridin-4-yl)methyl]amino}methyl)-1,4-dihydroquinolin-4-one] were below 1 µM and below 1 µM.
As for `Cc1cc(CN(Cc2cn(C3CC3)c3cc(Cl)c(F)cc3c2=O)[C@H]2CCCN(c3cnccc3CO)C2)ccn1` [Example 74, 7-chloro-1-cyclopropyl-6-fluoro-3-({[(3S)-1-[4-(hydroxymethyl)pyridin-3-yl]piperidin-3-yl][(2-methylpyridin-4-yl)methyl]amino}methyl)-1,4-dihydroquinolin-4-one], the concentration giving a half-maximal response (EC50) in assay [1] (18 h stimulation, luminescence) was 1 to 10 µM; in assay [2] (setting [3]) it was 1 to 10 µM.
On to `Cc1ccc(N2CCC[C@H](N(Cc3ccnc(C)c3)Cc3cn(C4CC4)c4cc(C5C[C@@H](O)CN5)ccc4c3=O)C2)cn1` (stereo partly drawn) [Example 76, 1-cyclopropyl-7-[(4R)-4-hydroxypyrrolidin-2-yl]-3-({[(3S)-1-(6-methylpyridin-3-yl)piperidin-3-yl][(2-methylpyridin-4-yl)methyl]amino}methyl)-1,4-dihydroquinolin-4-one], for which the EC50 was 1 to 10 µM in assay [1] (18 h stimulation, luminescence) and 1 to 10 µM in assay [2] (setting [3]).
For the compound `Cc1ccc(N2CCC[C@H](N(Cc3ccnc(C)c3)Cc3cn(CC(N)=O)c4ccccc4c3=O)C2)cn1` [Example 77, 2-[3-({[(3S)-1-(6-methylpyridin-3-yl)piperidin-3-yl][(2-methylpyridin-4-yl)methyl]amino}methyl)-4-oxo-1,4-dihydroquinolin-1-yl]acetamide], the EC50 in assay [1] (18 h stimulation, luminescence) lay within 1 to 10 µM; in assay [2] (setting [3]), 1 to 10 µM.
`Cc1ccc(N2CCC[C@H](N(Cc3ccnc(C)c3)Cc3cn(C4CC4)c4cc(N5CCC(CO)C5)c(F)cc4c3=O)C2)cn1` (stereo partly drawn) [Example 79, 1-cyclopropyl-6-fluoro-7-[3-(hydroxymethyl)pyrrolidin-1-yl]-3-({[(3S)-1-(6-methylpyridin-3-yl)piperidin-3-yl][(2-methylpyridin-4-yl)methyl]amino}methyl)-1,4-dihydroquinolin-4-one hydrochloride]: the EC50 in assay [1] (18 h stimulation, luminescence) was below 1 µM; in assay [2] (setting [3]), below 1 µM.
Consider `Cc1cnc(N2CCC[C@H](N(Cc3ccnc(C)c3)Cc3cn(C4CC4)c4cc(N5CCC[C@H](O)C5)c(F)cc4c3=O)C2)cn1` [Example 81, 1-cyclopropyl-6-fluoro-7-[(3S)-3-hydroxypiperidin-1-yl]-3-({[(3S)-1-(5-methylpyrazin-2-yl)piperidin-3-yl][(2-methylpyridin-4-yl)methyl]amino}methyl)-1,4-dihydroquinolin-4-one], for which the EC50 in assay [1] (18 h stimulation, luminescence) was below 1 µM; in assay [2] (setting [3]), below 1 µM.
As to `Cc1cc(CN(Cc2cn(C3CC3)c3cc(OCCO)c(F)cc3c2=O)[C@H]2CCCN(c3cnc(C)c(F)c3)C2)ccn1` [Example 83, 1-cyclopropyl-6-fluoro-3-({[(3S)-1-(5-fluoro-6-methylpyridin-3-yl)piperidin-3-yl][(2-methylpyridin-4-yl)methyl]amino}methyl)-7-(2-hydroxyethoxy)-1,4-dihydroquinolin-4-one], the EC50 in assay [1] (18 h stimulation, luminescence) was below 1 µM; in assay [2] (setting [3]) it was below 1 µM.
Take `Cc1cc(CN(Cc2cn(C3CC3)c3cc(OCCO)c(F)cc3c2=O)[C@H]2CCCN(c3cccnc3)C2)ccn1` [Example 84, 1-cyclopropyl-6-fluoro-7-(2-hydroxyethoxy)-3-({[(2-methylpyridin-4-yl)methyl][(3S)-1-(pyridin-3-yl)piperidin-3-yl]amino}methyl)-1,4-dihydroquinolin-4-one hydrochloride]: the EC50 in assay [1] (18 h) and in assay [2] (18 h) was below 1 µM in each case.
For the compound `C#CCOCCOCCOCCOCCOCCC(=O)Nc1ccc(CNC(=O)OCCOc2cc3c(cc2F)c(=O)c(CN(Cc2ccnc(C)c2)[C@H]2CCCN(c4cccnc4)C2)cn3C2CC2)cc1` [Example 84A, 2-{[1-cyclopropyl-6-fluoro-3-({[(2-methylpyridin-4-yl)methyl][(3S)-1-(pyridin-3-yl)piperidin-3-yl]amino}methyl)-4-oxo-1,4-dihydroquinolin-7-yl]oxy}ethyl N-{[4-(4,7,10,13,16-pentaoxanonadec-18-ynamido)phenyl]methyl}carbamate], the half-maximal effective concentration (EC50) was below 1 µM in assay [1] (18 h stimulation, luminescence) and below 1 µM in assay [2] (setting [3]).
Consider `Cc1cc(CN(Cc2cn(C3CC3)c3cc(N4CC[C@H](CO)C4)c(F)cc3c2=O)[C@H]2CCCN(c3cccnc3)C2)ccn1` [Example 87, 1-cyclopropyl-6-fluoro-7-[(3S)-3-(hydroxymethyl)pyrrolidin-1-yl]-3-({[(2-methylpyridin-4-yl)methyl][(3S)-1-(pyridin-3-yl)piperidin-3-yl]amino}methyl)-1,4-dihydroquinolin-4-one hydrochloride], for which the half-maximal effective concentration (EC50) in assay [1] (18 h stimulation, luminescence) was below 1 µM; in assay [2] (setting [3]), below 1 µM.
On to `Cc1cc(CN(Cc2cn(C3CC3)c3cc(OCCO)c(F)cc3c2=O)[C@H]2C[C@H](F)CN(c3cccnc3)C2)ccn1` [Example 89, 1-cyclopropyl-6-fluoro-3-({[(3S,5S)-5-fluoro-1-(pyridin-3-yl)piperidin-3-yl][(2-methylpyridin-4-yl)methyl]amino}methyl)-7-(2-hydroxyethoxy)-1,4-dihydroquinolin-4-one hydrochloride], for which the 50% effective concentration (EC50) in assay [1] (18 h stimulation, luminescence) is below 1 µM; in assay [2] (setting [3]) it was below 1 µM.
Take `Cc1cc(CN(Cc2cn(C3CC3)c3cc(OCCO)c(F)cc3c2=O)[C@H]2CCCN(c3cncc(F)c3)C2)ccn1` [Example 90, 1-cyclopropyl-6-fluoro-3-({[(3S)-1-(5-fluoropyridin-3-yl)piperidin-3-yl][(2-methylpyridin-4-yl)methyl]amino}methyl)-7-(2-hydroxyethoxy)-1,4-dihydroquinolin-4-one hydrochloride]: the EC50 is below 1 µM in assay [1] (18 h stimulation, luminescence) and below 1 µM in assay [2] (setting [3]).
With `Cc1cc(CN(Cc2cn(C3CC3)c3cc(N4CC[C@@H](CO)C4)c(F)cc3c2=O)[C@H]2CCCN(c3cnccn3)C2)ccn1` [Example 91, 1-cyclopropyl-6-fluoro-7-[(3R)-3-(hydroxymethyl)pyrrolidin-1-yl]-3-({[(2-methylpyridin-4-yl)methyl][(3S)-1-(pyrazin-2-yl)piperidin-3-yl]amino}methyl)-1,4-dihydroquinolin-4-one hydrochloride], the EC50 was below 1 µM in assay [1] (18 h stimulation, luminescence) and below 1 µM in assay [2] (setting [3]).
Take `Cc1cc(CN(Cc2cn(C3CC3)c3cc(OCCO)c(F)cc3c2=O)[C@H]2CCCN(c3ccc(N(C)C)nc3)C2)ccn1` [Example 92, 1-cyclopropyl-3-({[(3S)-1-[6-(dimethylamino)pyridin-3-yl]piperidin-3-yl][(2-methylpyridin-4-yl)methyl]amino}methyl)-6-fluoro-7-(2-hydroxyethoxy)-1,4-dihydroquinolin-4-one hydrochloride]: the EC50 in assay [1] (18 h stimulation, luminescence) was below 1 µM; in assay [2] (setting [3]), below 1 µM.
Regarding `Cc1cc(CN(Cc2cn(C3CC3)c3cc(OCCO)c(F)cc3c2=O)[C@H]2CCCN(c3cncc(C(F)(F)F)c3)C2)ccn1` [Example 93, 1-cyclopropyl-6-fluoro-7-(2-hydroxyethoxy)-3-({[(2-methylpyridin-4-yl)methyl][(3S)-1-[5-(trifluoromethyl)pyridin-3-yl]piperidin-3-yl]amino}methyl)-1,4-dihydroquinolin-4-one hydrochloride], the EC50 in assay [1] (18 h stimulation, luminescence) was below 1 µM; in assay [2] (setting [3]), below 1 µM.
With `Cc1cc(CN(Cc2cn(C3CC3)c3cc(N4CC[C@H](CO)C4)c(F)cc3c2=O)[C@H]2CCCN(c3cnccn3)C2)ccn1` [Example 94, 1-cyclopropyl-6-fluoro-7-[(3S)-3-(hydroxymethyl)pyrrolidin-1-yl]-3-({[(2-methylpyridin-4-yl)methyl][(3S)-1-(pyrazin-2-yl)piperidin-3-yl]amino}methyl)-1,4-dihydroquinolin-4-one hydrochloride], the concentration for a half-maximal effect (EC50) in assay [1] (18 h stimulation, luminescence) was below 1 µM; in assay [2] (setting [3]), below 1 µM.
